# Results reported in patent US10710986B2, “PD-1/PD-L1 inhibitors” (Gilead Sciences, Inc., priority 2018, dated 2020).
# Molecular target: PD-1/PD-L1 (Homo sapiens (Human), UniProt Q9NZQ7)
# Test: PD-1/PD-L1 biochemical protein-protein interaction assay (ALPHA)
# Conditions: 0.3 nM His tagged PD-L1, 2.5 nM biotinylated Fc-PD-1, 60 minutes at 25° C., read-out: IC50 PD-L1-PD1
# Protocol: Binding of the protein pairs is measured using a bead based Amplified Luminescent Proximity Homogeneous Assay (ALPHA) platform. Binding of each protein pair results in proximity of the donor and acceptor beads which leads to an increase in ALPHA signal. […] Assays are performed in 25 mM Hepes (pH 7.4), 150 mM NaCl, 3.4 mM EDTA, 0.005% Tween 20, and 0.01% BSA. […] After an assay reaction time of 60 minutes at 25° C., binding was measured with addition of 20 μg/mL ALPHA assay acceptor beads (anti-His coated) and 20 µg/mL ALPHA assay donor beads (streptavidin coated). IC50 values were calculated from the fit of the dose-response curves to a four-parameter equation.
# Chain of PD-1/PD-L1 (Q9NZQ7 19-238): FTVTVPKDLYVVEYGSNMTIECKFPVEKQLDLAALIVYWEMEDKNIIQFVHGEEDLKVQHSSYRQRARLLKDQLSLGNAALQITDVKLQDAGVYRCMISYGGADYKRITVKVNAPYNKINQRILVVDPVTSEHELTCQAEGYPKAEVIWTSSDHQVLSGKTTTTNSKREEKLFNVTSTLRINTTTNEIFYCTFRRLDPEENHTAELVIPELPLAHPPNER
row,IC50,Compound
1,0.211 nM,COc1nc(-c2cccc(-c3cccc(-c4cnc(CNC[C@@H]5CCC(=O)N5)c(OC)n4)c3Br)c2Br)cnc1CNC[C@@H]1CCC(=O)N1 [compound 113]
2,0.064 nM,COc1nc(-c2cccc(-c3cccc(-c4cnc(CN5CC6(CNC(=O)C6)C5)c(OC)n4)c3Cl)c2Cl)ccc1C1=NCCN1 [compound 114]
3,0.115 nM,COc1nc(-c2cccc(-c3cccc(-c4cnc(CN5CC6(CCC(=O)N6)C5)c(OC)n4)c3Cl)c2Cl)ccc1C1=NCCN1 [compound 115]
4,0.064 nM,COc1nc(-c2cccc(-c3cccc(-c4cnc(CN5CC(O)C5)c(OC)n4)c3Cl)c2Cl)ccc1C1=NCCN1 [compound 116]
5,0.281 nM,COc1nc(-c2cccc(-c3cccc(-c4cnc(CNC[C@@H]5CCC(=O)N5)c(OC)n4)c3Cl)c2Cl)ccc1C1=NCCN1 [compound 117]
6,0.715 nM,COc1nc(-c2cccc(-c3cccc(-c4cnc(CN5CC(F)C5)c(OC)n4)c3Cl)c2Cl)cnc1CN1CC(F)C1 [compound 118]
7,0.115 nM,COc1nc(-c2cccc(-c3cccc(-c4cnc(C5=NCC(F)(F)CN5)c(OC)n4)c3Cl)c2Cl)cnc1C1=NCC(F)(F)CN1 [compound 119]
8,0.32 nM,COc1nc(-c2cccc(-c3cccc(-c4cnc(CN5CC6(CNC(=O)C6)C5)c(OC)n4)c3Cl)c2Cl)cnc1CN1CC2(CNC(=O)C2)C1 [compound 120]
9,0.064 nM,COc1nc(-c2cccc(-c3cccc(-c4cnc(C5=NC[C@H](C)N5)c(OC)n4)c3Cl)c2Cl)cnc1C1=NC[C@H](C)N1 [compound 121]
10,1.69 nM,COc1cc(-c2cccc(-c3cccc(-c4cnc(CN)c(OC)n4)c3Cl)c2Cl)ccc1CN [compound 122]
11,0.112 nM,COc1cc(-c2cccc(-c3cccc(-c4cnc(CN5CC6(CNC(=O)C6)C5)c(OC)n4)c3Cl)c2Cl)ccc1CN1CC2(CNC(=O)C2)C1 [compound 123]
12,0.19 nM,COc1cc(-c2cccc(-c3cccc(-c4cnc(CN5CC6(CCC(=O)N6)C5)c(OC)n4)c3Cl)c2Cl)ccc1CN1CC2(CCC(=O)N2)C1 [compound 124]
13,0.225 nM,COc1cc(-c2cccc(-c3cccc(-c4cnc(CNC[C@@H]5CCC(=O)N5)c(OC)n4)c3Cl)c2Cl)ccc1CNC[C@@H]1CCC(=O)N1 [compound 125]
14,0.272 nM,"COc1nc(-c2cccc(-c3cccc(-c4cnc(CNC[C@@H]5CCC(=O)N5)c(OC)n4)c3Cl)c2Cl)ccc1CNC[C@@H]1CCC(=O)N1 [compound 126, (S)-5-((((6-(2,2′-dichloro-3′-(6-methoxy-5-(((((S)-5-oxopyrrolidin-2-yl)methyl)amino)methyl)pyrazin-2-yl)-[1,1′-biphenyl]-3-yl)-2-methoxypyridin-3-yl)methyl)amino)methyl)pyrrolidin-2-one]"
15,0.064 nM,COc1nc(-c2cccc(-c3cccc(-c4cnc(C5=NCC(C)(C)N5)c(OC)n4)c3Cl)c2Cl)cnc1C1=NCC(C)(C)N1 [compound 127]
16,0.557 nM,COc1nc(-c2cccc(-c3cccc(-c4cnc(C5=NCC(O)CN5)c(OC)n4)c3Cl)c2Cl)cnc1C1=NCC(O)CN1 (stereo not shown) [compound 128]
17,0.064 nM,COc1nc(-c2cccc(-c3cccc(-c4cnc(C5=NC[C@@H](C)N5)c(OC)n4)c3Cl)c2Cl)cnc1C1=NC[C@@H](C)N1 [compound 129]
18,0.185 nM,COc1nc(-c2cccc(-c3cccc(-c4cnc(CN5CC[C@@H](O)C5)c(OC)n4)c3Cl)c2Cl)cnc1CN1CC[C@@H](O)C1 [compound 130]
19,0.309 nM,COc1nc(-c2cccc(-c3cccc(-c4cnc(CN5CC(O)C5)c(OC)n4)c3Cl)c2Cl)cnc1CN1CC(O)C1 [compound 131]
20,0.753 nM,COc1nc(-c2cccc(-c3cccc(-c4cnc(CN5CC[C@H](O)C5)c(OC)n4)c3Cl)c2Cl)cnc1CN1CC[C@H](O)C1 [compound 132]
21,0.064 nM,COc1nc(-c2cccc(-c3cccc(-c4cnc(C5=NC[C@H](CO)N5)c(OC)n4)c3Cl)c2Cl)cnc1C1=NC[C@H](CO)N1 [compound 133]
22,0.064 nM,COc1nc(-c2cccc(-c3cccc(-c4cnc(C5=NC[C@@H](CO)N5)c(OC)n4)c3Cl)c2Cl)cnc1C1=NC[C@@H](CO)N1 [compound 134]
